Results from patent publication US6624142B2, “Trimethyl lock based tetrapartate prodrugs” (Enzon, Inc., priority 1997, dated 2003).

Tested on: s.c. Human Mammary Tumor (MX-1)
Test: Efficacy against s.c. MX-1 human mammary tumor in nude mice
Format: in vivo
Settings: 30 mg/kg q7d × 3, iv
Protocol: Following at least one week of acclimation, tumors were established by injecting 1×10^6 (100 μl) harvested MX-1 mammary tumor cells in a single subcutaneous site, on the left axillary flank region of nude mice. The tumor injection site was observed twice weekly and measured once palpable. The tumor volume for each mouse was determined by measuring two dimensions with calipers and calculated using the formula: tumor volume ((length×width^2)/2). When tumors reached the average volume of approximately 65 mm^3, the mice were divided into their experimental groups, which consists of vehicles (20 m M Sodium PO4 in 0.6% NaCl) controls, Leu-Doxorubicin, compound 3 of Example 1a, compound 5 of Example 2a. The mice were sorted to evenly distribute tumor size, grouped into 6 mice/cage, and ear punched for permanent identification. Drugs were dosed intravenously via the tail vein once per week for three weeks (Qd7×3). Mouse weight and tumor sizes were measured at the beginning of study and twice weekly through week 5.
The overall growth of tumors was calculated as the mean tumor volume at one week following the end of the treatment. A percent treatment over control (T/C) value was also calculated when the control group's median tumor size reached approximately 800-1100 mm^3 and again at one week following treatment. The T/C value in percent is a non-quantitative indication of anti-tumor effectiveness.

Compound: COc1cccc2c1C(=O)c1c(O)c3c(c(O)c1C2=O)C[C@@](O)(C(=O)CO)C[C@@H]3O[C@H]1C[C@H](NC(=O)[C@@H](N)CC(C)C)[C@H](O)[C@H](C)O1 [Leu-Dox, Leucine-Doxorubicin, reference compound]
- Tumor Vol. Mean ± SEM (Day 25-28) (Day 25-28, mean baseline tumor volume 65 mm^3): 860 ± 163 mm^3
- T/C (%) 1000 mm^3 (median tumor volume, treatment vs control, when control median reached approximately 1000 mm^3): 56.5%
- % Change Mean ± SEM (Day 25-28) (tumor volume change, Day 25-28): 1373 ± 487%
